Patent US6254882A, “Methods and compositions for treating pulmonary disorders using optically pure (S)--salmeterol” (Sepracor Inc., priority 1997, dated 2001)

Legend:
[1] = tested on: isolated guinea pig right atria; test: Chronotropic effect on isolated guinea pig right atria (atrial rate); design: species or system guinea pig (male Hartley); conditions: for EC50: Cavia porcellus, % of rate produced by 1 μM forskolin, tested up to 1000 nM, r(log-lin) = 0.9453-0.9968, read-out: EC50 Atrial Rate, determined by linear regression of percent maximum response
[2] = tested on: isolated guinea pig tracheal strips; test: Relaxation of histamine-contracted isolated guinea pig tracheal strips; design: species or system guinea pig (male Hartley); conditions: for EC50: Cavia porcellus, % of maximum relaxation by 1 mM papaverine, tested up to 1000 nM, r(log-lin) = 0.9453-0.9968, (S)-salmeterol extrapolated from three data points, read-out: EC50 Tracheal Relaxation, determined by linear regression of percent maximum response
[3] = as described in the PDR, even by inhalation; cited from earlier work
human β2 AR = human β2 AR (Homo sapiens, UniProt P07550); test: Competitive binding to human β2-adrenergic receptor ([125I]iodopindolol, Sf9 cell membranes); conditions: radioligand [125I]iodopindolol; read-out: Kd for radioligand binding to human β2 ARs
human β2 AR, sequence (P07550 whole entry): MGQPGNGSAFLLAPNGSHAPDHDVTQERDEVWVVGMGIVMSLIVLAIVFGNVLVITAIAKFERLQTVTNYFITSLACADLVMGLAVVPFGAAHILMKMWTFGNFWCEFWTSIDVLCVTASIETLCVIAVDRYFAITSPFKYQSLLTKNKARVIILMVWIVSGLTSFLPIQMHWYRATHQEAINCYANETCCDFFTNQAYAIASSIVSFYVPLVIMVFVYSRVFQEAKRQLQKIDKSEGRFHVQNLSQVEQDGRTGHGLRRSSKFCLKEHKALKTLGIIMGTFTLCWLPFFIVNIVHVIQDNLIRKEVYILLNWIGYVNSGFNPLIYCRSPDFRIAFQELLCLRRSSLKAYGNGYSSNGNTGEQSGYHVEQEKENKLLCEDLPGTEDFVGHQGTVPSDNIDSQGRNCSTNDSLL

human β1 AR = human β1 AR (Homo sapiens, UniProt P08588); test: Competitive binding to human β1-adrenergic receptor ([125I]iodopindolol, Sf9 cell membranes); conditions: radioligand [125I]iodopindolol; read-out: Kd for radioligand binding to human β1 ARs
human β1 AR, sequence (P08588 whole entry): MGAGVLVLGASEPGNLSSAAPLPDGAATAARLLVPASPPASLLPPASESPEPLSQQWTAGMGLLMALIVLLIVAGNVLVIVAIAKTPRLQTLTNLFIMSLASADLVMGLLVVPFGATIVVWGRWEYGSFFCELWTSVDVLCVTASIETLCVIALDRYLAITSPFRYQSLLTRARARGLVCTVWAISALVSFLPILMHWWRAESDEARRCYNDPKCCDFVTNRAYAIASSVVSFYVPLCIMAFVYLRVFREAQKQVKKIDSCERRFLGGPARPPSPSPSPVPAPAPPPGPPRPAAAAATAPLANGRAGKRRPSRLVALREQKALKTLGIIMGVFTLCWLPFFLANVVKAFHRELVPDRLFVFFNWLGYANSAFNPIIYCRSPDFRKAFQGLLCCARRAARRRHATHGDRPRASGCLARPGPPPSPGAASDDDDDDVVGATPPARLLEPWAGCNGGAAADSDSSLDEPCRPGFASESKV

EC50 [1] | EC50 [2] | SMILES | further results
272 nM | 673 nM | CC(C)(C)NCC(O)c1ccc(O)c(CO)c1 (racemic) [(RS)-Albuterol] | 
177 nM | 747 nM | CC(C)(C)NC[C@H](O)c1ccc(O)c(CO)c1 [(R)-Albuterol] | potency for tracheal relaxation relative to (S)-salmeterol ([2]; relative to (S)-salmeterol): approximately four
1730 nM | 149 nM | OCc1cc([C@@H](O)CNCCCCCCOCCCCc2ccccc2)ccc1O [(R)-Salmeterol] | 
> 10000 nM | 100000 nM | CC(C)(C)NC[C@@H](O)c1ccc(O)c(CO)c1 [(S)-Albuterol] | 

The next lines start with the molecule.

SMILES | EC50 [1] | EC50 [2] | further results
OCc1cc(C(O)CNCCCCCCOCCCCc2ccccc2)ccc1O (racemic) [(RS)-Salmeterol, 4-hydroxy-α^1 - [[[6(4-phenylbutoxy)-hexyl]amino]methyl]-1,3-benzenedimethanol] | 3520 nM | 273 nM | adverse effects [3]: tachycardia, palpitations, urticaria, angioedema, rash, bronchospasms, headache, tremors, nervousness, and paradoxical bronchospasms
OCc1cc([C@H](O)CNCCCCCCOCCCCc2ccccc2)ccc1O [(S)-Salmeterol, S enantiomer of 4-hydroxy-α^1 - [[[6(4-phenylbutoxy)-hexyl]amino]methyl]-1,3-benzenedimethanol] |  | 3150 nM | effect on atrial rate compared with vehicle control ([1]; in words): essentially the same effect on atrial rate as the vehicle control; potency for tracheal relaxation compared with (S,S)-formoterol ([2]; extrapolated from three data points): equivalent in potency; efficacy with respect to tracheal relaxation ([2]; in words): full efficacy could be achieved; potency for tracheal relaxation compared with racemic formoterol or its (R,R)-enantiomer ([2]; in words): significantly less potent
CC(C)NC[C@H](O)COc1cccc2[nH]cc(I)c12 [[^125 l] iodopindolol] |  |  | Kd (human β2 AR): 0.02 nM; Kd (human β1 AR): 2 nM
C=C[C@@]1(C)CC(=O)[C@]2(O)[C@@]3(C)[C@@H](O)CCC(C)(C)[C@@H]3[C@H](O)[C@H](OC(C)=O)[C@@]2(C)O1 [forskolin] |  |  | rate of spontaneous contraction of right atria ([1]; 1 μM forskolin, basal roughly 140-170 bpm): 195-250 bpm
COc1ccc(Cc2nccc3cc(OC)c(OC)cc23)cc1OC [papaverine] |  |  | relaxation of histamine-contracted tracheal strips ([2]; 1 mM papaverine): complete relaxation
